{"source": "EPA's ToxValDB 9.5 (doi:10.2903/j.efsa.2006.64r)", "key": {"[1]": {"system": "Apis mellifera", "conditions": "acute, mortality"}, "[2]": {"system": "Beta vulgaris", "conditions": "not reported; seedling emergence"}, "[3]": {"system": "Bibionidae", "conditions": "chronic/long-term; duration: 28 days; seedling emergence"}, "[4]": {"system": "Bird"}, "[5]": {"system": "Daphnia magna", "conditions": "chronic/long-term; duration: 21 days; reproduction"}, "[6]": {"system": "Mus musculus", "conditions": "acute; oral; mortality"}, "[7]": {"system": "Oncorhynchus mykiss", "conditions": "mortality"}, "[8]": {"system": "Oryctolagus sp.", "conditions": "developmental; development"}, "[9]": {"system": "Tagia sp."}, "[10]": {"system": "Typhlodromus pyri", "conditions": "acute; duration: 7 days; mortality"}}}
{"smiles": "CC1(C)CCC(Cc2ccc(Cl)cc2)C1(O)Cn1cncn1", "note": "(stereo not given) [Metconazole]", "values": [{"measurement": "LD50", "setting": "[1]; duration: 72 hours, oral, unspecified", "value": "> 85", "unit": "µg/piece"}, {"measurement": "LD50", "setting": "[1]; duration: 96 hours, dermal", "value": "> 100", "unit": "µg/piece"}, {"measurement": "NOEC", "setting": "[2]", "value": 96, "unit": "g/ha"}, {"measurement": "NOEC", "setting": "[3]", "value": 2.12, "unit": "mg/L"}, {"measurement": "LD50", "setting": "[4]; acute, oral, unspecified, mortality", "value": 787, "unit": "mg/kg"}, {"measurement": "NOEC", "setting": "[4]; reproductive, duration: 22 weeks", "value": 6.19, "unit": "mg/kg-day"}, {"measurement": "LC50", "setting": "[4]; short-term, oral, feed, mortality", "value": 168, "unit": "mg/kg-day"}, {"measurement": "NOEC", "setting": "[5]", "value": 0.16, "unit": "mg/L"}, {"measurement": "LD50", "setting": "[6]", "value": 410, "unit": "mg/kg"}, {"measurement": "LC50", "setting": "[7]; acute, duration: 72 hours", "value": 2.1, "unit": "µg/mL"}, {"measurement": "NOEC", "setting": "[7]; chronic/long-term, duration: 95 days", "value": 0.00291, "unit": "mg/L"}, {"measurement": "NOAEL", "setting": "[8]", "value": 4, "unit": "mg/kg-day"}, {"measurement": "LC50", "setting": "[9]; acute, duration: 14 days, mortality", "value": "> 1000", "unit": "mg/kg"}, {"measurement": "NOEC", "setting": "[9]; chronic/long-term, reproduction", "value": 1.8, "unit": "mg/kg"}, {"measurement": "LEL", "setting": "[10]", "value": 180, "unit": "g/ha"}]}
